# From PubChem BioAssay (NCI)
#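 1) Cells in 96-well plates. 2) Compound, 48 h, 5 concentrations. 3) Linear interpolation between surrounding doses. 4) Unreached endpoint = highest concentration. GI50 is the concentration that inhibits growth by half. TGI marks complete inhibition of growth.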
# How the values were obtained:
# Assay in all cases: NCI anticancer screen, dose series, 48 h
# UO-31 renal = test system: UO-31 renal
# HOP-92 NSCLC = test system: HOP-92 NSCLC
# SNB-19 CNS = test system: SNB-19 CNS
# NCI-H460 lung = test system: NCI-H460 lung
# 786-0 renal = test system: 786-0 renal
# UACC-257 melanoma = test system: UACC-257 melanoma
# U251 CNS = test system: U251 CNS
# SF-295 CNS = test system: SF-295 CNS
# MOLT-4 leukemia = test system: MOLT-4 leukemia
# SF-539 CNS = test system: SF-539 CNS
SMILES,GI50 (UO-31 renal),TGI (UO-31 renal),GI50 (HOP-92 NSCLC),TGI (HOP-92 NSCLC),GI50 (SNB-19 CNS),TGI (SNB-19 CNS),GI50 (NCI-H460 lung),TGI (NCI-H460 lung),GI50 (786-0 renal),TGI (786-0 renal),GI50 (UACC-257 melanoma),TGI (UACC-257 melanoma),GI50 (U251 CNS),TGI (U251 CNS),GI50 (SF-295 CNS),TGI (SF-295 CNS),GI50 (MOLT-4 leukemia),TGI (MOLT-4 leukemia),GI50 (SF-539 CNS),TGI (SF-539 CNS)
COc1cccc(/C=C/C(=O)c2ccc(Cl)cc2Cl)c1,17.4 µM,> 50 µM,0.0134 µM,9.44 µM,8.07 µM,16.8 µM,11.9 µM,40.2 µM,12.8 µM,40.7 µM,9.33 µM,17.4 µM,9.19 µM,> 50 µM,28.2 µM,> 50 µM,0.773 µM,> 50 µM,12.2 µM,23 µM
CCCC(CCC)C(=O)OCC1(CO)C/C(=C\c2ccc(F)cc2)C(=O)O1 (stereo not given),8.35 µM,24.4 µM,0.487 µM,12.5 µM,18.2 µM,32.2 µM,1.94 µM,19.6 µM,10.5 µM,23.8 µM,14.7 µM,28.7 µM,8.07 µM,23.4 µM,1.99 µM,17.4 µM,3.54 µM,21.4 µM,12 µM,24.4 µM
CC/C(CC(=O)CCC(=O)Nc1ccccc1[N+](=O)[O-])=N/NC(=O)C[n+]1ccccc1,–,> 100 µM,–,> 100 µM,–,> 100 µM,–,> 100 µM,–,> 100 µM,–,> 100 µM,–,> 100 µM,–,> 100 µM,–,> 100 µM,–,> 100 µM
O=Cc1cccc2c1Oc1c(cccc1C(=O)O)S2,–,> 100 µM,–,> 100 µM,–,> 100 µM,–,> 100 µM,–,> 100 µM,–,> 100 µM,–,> 100 µM,–,> 100 µM,–,68.1 µM,–,> 100 µM
CCOC(=N)/C(=C1\OC(N)=C(c2ccc(Cl)cc2)C1=O)c1ccc(Cl)cc1,–,31.3 µM,–,34 µM,–,49.9 µM,–,46 µM,–,32.7 µM,–,35.1 µM,–,30.8 µM,–,55.8 µM,–,52.1 µM,–,30.2 µM
CN1C(=O)C(=O)c2cc3c(c4c2c1cc1ccccc14)OCO3,–,> 100 µM,–,> 100 µM,–,> 100 µM,–,> 100 µM,–,> 100 µM,–,> 100 µM,–,> 100 µM,–,> 100 µM,–,93.4 µM,–,> 100 µM
O=C1OC(O)C(Oc2c(Cl)cccc2Cl)=C1Cl (stereo not given),–,28.2 µM,–,41.9 µM,–,78.1 µM,–,29.2 µM,–,32.2 µM,–,42.1 µM,–,26.8 µM,–,33.9 µM,–,85.7 µM,–,32.3 µM
